Results from the Deep4Chem optical property database.

Assay: photoluminescence quantum yield (fraction); solvent given as SMILES

Compound `CCOC(=O)c1sc2nc(-c3ccccc3)c(C)c(C#N)c2c1N` has a photoluminescence quantum yield (in C1COCCO1) of 0.024, a photoluminescence quantum yield (in CC#N) of 0.009 and a photoluminescence quantum yield (in CCOC(C)=O) of 0.027. The photoluminescence quantum yield (in ClC(Cl)Cl) was 0.037 and the photoluminescence quantum yield (in c1ccccc1) was 0.047.

`O=[N+]([O-])c1ccc(-c2nc(/C=C/c3ccc(Cl)cc3)c(/C=C/c3ccc(Cl)cc3)[nH]2)cc1` gave a photoluminescence quantum yield (in ClCCl) of 0.

In the case of `CCCCCCOc1cc(/C=C/c2cc(OCCCCCC)c(/C=C/c3cc(OCCCCCC)c(C=C4C(=O)c5ccccc5C4=O)cc3OCCCCCC)cc2OCCCCCC)c(OCCCCCC)cc1C=C1C(=O)c2ccccc2C1=O`, the photoluminescence quantum yield (in ClCCl) is reported as 0.0468.

With `CC1=CC(C)=[N+]2C1=C(c1ccc(N3CCOCC3)cc1)c1c(C)cc(C)n1[B-]2(F)F` the photoluminescence quantum yield (in C1CCOC1) was 0.011, the photoluminescence quantum yield (in CC#N) was 0.001 and the photoluminescence quantum yield (in CC(=O)C(C)(C)C) was 0.063. It also gave a photoluminescence quantum yield (in CC(C)=O) of 0.001, a photoluminescence quantum yield (in CCCCCC) of 0.45 and a photoluminescence quantum yield (in CCOC(C)=O) of 0.029. For the same compound, the photoluminescence quantum yield (in CO) was 0.002.

In the case of `Nc1cc([NH3+])cc(-c2nc3ccccc3s2)c1`, the photoluminescence quantum yield (in O) is reported as 0.064.

`CCOC(=O)c1sc(SC)c2c(=O)[nH]nnc12` showed a photoluminescence quantum yield (in C1CCOC1) of 0.0075, a photoluminescence quantum yield (in CC#N) of 0.018 and a photoluminescence quantum yield (in CCO) of 0.023. It also gave a photoluminescence quantum yield (in CN(C)C=O) of 0.0037, a photoluminescence quantum yield (in CO) of 0.029 and a photoluminescence quantum yield (in CS(C)=O) of 0.0054.

In the case of `CSC1=C2C=C(c3cc4n(c3)[B-](F)(F)[N+]3=CC=CC3=C4c3c(C)cc(C)cc3C)C(C)=[N+]2[B-](F)(F)n2c(C)ccc21`, the photoluminescence quantum yield (in C1CCCCC1) is reported as 0.83, the photoluminescence quantum yield (in CC#N) is reported as 0.01 and the photoluminescence quantum yield (in CC(C)=O) is reported as 0.01. For the same compound, the photoluminescence quantum yield (in CCOC(C)=O) was 0.19 and the photoluminescence quantum yield (in Cc1ccccc1) was 0.57.

In the case of `COC(=O)c1nc(-c2cccc3ccccc23)oc1C`, the photoluminescence quantum yield (in C1CCCCC1) is reported as 0.58, the photoluminescence quantum yield (in CC#N) is reported as 0.51 and the photoluminescence quantum yield (in CCO) is reported as 0.5. The photoluminescence quantum yield (in CCOC(C)=O) was 0.54.

With `CN(C)c1ccc(-c2c(/C=C3/C=Cc4ccccc4N3C)c(=O)c2=O)cc1` the photoluminescence quantum yield (in C1CCCCC1) was 0.0301, the photoluminescence quantum yield (in Cc1ccccc1) was 0.0256 and the photoluminescence quantum yield (in ClCCl) was 0.001.

With `N#CC1=C(N)n2c(=O)c3ccccc3c(=O)n2C1c1cccs1` (configuration not stated) the photoluminescence quantum yield (in CS(C)=O) was 0.08.

For `CCCCCCCCc1ccc(-c2c3cc(-c4cc(CCCCCCCC)c(-c5ccc(-c6sc(/C=C7\SC(=S)N(CC)C7=O)cc6CCCCCCCC)s5)s4)sc3c(-c3ccc(CCCCCCCC)s3)c3cc(-c4cc(CCCCCCCC)c(-c5ccc(-c6sc(/C=C7\SC(=S)N(CC)C7=O)cc6CCCCCCCC)s5)s4)sc23)s1`, the photoluminescence quantum yield (in C1CCOC1) was 0.048 and the photoluminescence quantum yield (in ClC(Cl)Cl) was 0.027.

With `Cc1nc(-c2ccccc2O)n2c1CCCC2` the photoluminescence quantum yield (in ClCCl) was 0.63.

`C=Cc1cc2ccc(N(CC)CC)cc2oc1=O` showed a photoluminescence quantum yield (in CC#N) of 0.98.

For `CCN(CC)c1ccc(-c2ccc(-c3nc(N4CCOCC4)c4ccccc4n3)s2)cc1`, the photoluminescence quantum yield (in CC#N) was 0.23 and the photoluminescence quantum yield (in Cc1ccccc1) was 0.67.

Compound `CC(C)c1cc(C(C)C)c(-c2nnc(-c3ccc(-n4c5ccccc5c5ccccc54)cc3)o2)c(C(C)C)c1` has a photoluminescence quantum yield (in Cc1ccccc1) of 0.61.

For `CC(C)(C)c1ccc2c(c1)c1cc(C(C)(C)C)ccc1n2-c1cccc(-c2nc(-c3cccc(P(=O)(c4ccccc4)c4ccccc4)c3)nc(-c3cccc(P(=O)(c4ccccc4)c4ccccc4)c3)n2)c1`, the photoluminescence quantum yield (in O=P(c1ccccc1)(c1ccccc1)c1ccccc1Oc1ccccc1P(=O)(c1ccccc1)c1ccccc1) was 0.72.

In the case of `CC[n+]1nc2ccc(N(C)C)cc2c2cc(C)ccc21`, the photoluminescence quantum yield (in O) is reported as 0.003.

Work on `F[B-]1(F)n2c(ccc2-c2ccccc2)C(C(F)(F)F)=C2C=CC(c3ccccc3)=[N+]21` yielded a photoluminescence quantum yield (in CCCCCC) of 0.74.

`CCOc1ccc(/C=C/C=C/C=C/c2ccc([N+](=O)[O-])cc2)cc1` gave a photoluminescence quantum yield (in CC1CCCCC1) of 0.22, a photoluminescence quantum yield (in CC#N) of 0.017 and a photoluminescence quantum yield (in Cc1ccccc1) of 0.5. The photoluminescence quantum yield (in ClCCl) was 0.068.

Compound `CCN(CC)c1ccc2c(-c3ccc(S(=O)(=O)[O-])cc3S(=O)(=O)[O-])c3ccc(=[N+](CC)CC)cc-3oc2c1` has a photoluminescence quantum yield (in CC#N) of 0.52, a photoluminescence quantum yield (in CCO) of 0.68 and a photoluminescence quantum yield (in CN(C)C=O) of 0.51. The photoluminescence quantum yield (in O) was 0.3.

Compound `CCCCCCCCCCCCN1C(=O)c2c(c3ccc4cc(-c5cccs5)c(OC)cc4c3c3c2ccc2cc(-c4cccs4)c(OC)cc23)C1=O` has a photoluminescence quantum yield (in ClCCl) of 0.216.

Compound `Cc1cccc2nc3c(=O)[nH]c(=O)[nH]c3nc12` has a photoluminescence quantum yield (in C1COCCO1) of 0.033, a photoluminescence quantum yield (in CC#N) of 0.018 and a photoluminescence quantum yield (in CCO) of 0.03. The photoluminescence quantum yield (in CO) was 0.044, the photoluminescence quantum yield (in ClCCCl) was 0.028 and the photoluminescence quantum yield (in O) was 0.053.

With `CCN(CC)c1ccc(C2=C3C(C)=CC(/C=C/c4ccc(OCC(=O)OC)cc4)=[N+]3[B-](F)(F)n3c(C)cc(C)c32)cc1` the photoluminescence quantum yield (in CO) was 0.87.

With `COc1ccc(/C=C(\c2ccccc2)c2nc3ccccc3s2)cc1` the photoluminescence quantum yield (in CO) was 0.001.

`Ic1ccc(-c2c3ccc(=[N+]4CCCCC4)cc-3oc3cc(N4CCCCC4)ccc23)cc1` showed a photoluminescence quantum yield (in CCO) of 0.28 and a photoluminescence quantum yield (in ClCCl) of 0.85.

`N#Cc1c(-n2c3ccccc3c3ccccc32)cc(N2c3ccccc3C(c3ccccc3)(c3ccccc3)c3ccccc32)cc1-n1c2ccccc2c2ccccc21` showed a photoluminescence quantum yield (in Cc1ccccc1) of 0.27.

In the case of `N#Cc1ccc(C#Cc2ccc3ccc4ccc(C#Cc5ccc(C#N)cc5)c5ccc2c3c45)cc1`, the photoluminescence quantum yield (in CCCCCC) is reported as 0.8, the photoluminescence quantum yield (in CO) is reported as 0.734 and the photoluminescence quantum yield (in ClCCl) is reported as 0.732.
